pIC50: −log10 of the molar value.
Tests used:
[1] = biological target: Vascular endothelial growth factor receptor 2 (Homo sapiens, UniProt P35968); assay: Inhibition of human N-terminal GST tagged VEGFR-2 expressed in baculovirus infected Sf9 cells using poly (Glu,Tyr) 4:1 as substrate in presence of ATP by Kinase-Glo luminescence assay
[2] = biological target: Serine/threonine-protein kinase B-raf (Homo sapiens, UniProt P15056); assay: Inhibition of human wild type BRAF by Kinase-Glo luminescence assay
CCRF-CEM = assay: Growth inhibition of human CCRF-CEM cells at 10 uM incubated for 48 hrs by sulforhodamine B assay relative to control; assay type: functional; settings: read-out: GI
K562 = assay: Growth inhibition of human K562 cells at 10 uM incubated for 48 hrs by sulforhodamine B assay relative to control; assay type: functional; settings: K562, 48 h, read-out: GI
MOLT-4 = assay: Growth inhibition of human MOLT4 cells at 10 uM incubated for 48 hrs by sulforhodamine B assay relative to control; assay type: functional; settings: MOLT-4, 48 h, read-out: GI
RPMI-8226 = assay: Growth inhibition of human RPMI8226 cells at 10 uM incubated for 48 hrs by sulforhodamine B assay relative to control; assay type: functional; settings: RPMI-8226, 48 h, read-out: GI
NCI-H226 = assay: Growth inhibition of human NCI-H226 cells at 10 uM incubated for 48 hrs by sulforhodamine B assay relative to control; assay type: functional; settings: NCI-H226, 48 h, read-out: GI
NCI-H23 = assay: Growth inhibition of human NCI-H23 cells at 10 uM incubated for 48 hrs by sulforhodamine B assay relative to control; assay type: functional; settings: NCI-H23, 48 h, read-out: GI
NCI-H522 = assay: Growth inhibition of human NCI-H522 cells at 10 uM incubated for 48 hrs by sulforhodamine B assay relative to control; assay type: functional; settings: NCI-H522, 48 h, read-out: GI
HCT-116 = assay: Growth inhibition of human HCT116 cells at 10 uM incubated for 48 hrs by sulforhodamine B assay relative to control; assay type: functional; settings: HCT-116, 48 h, read-out: GI
LOX IMVI = assay: Growth inhibition of human LOXIMVI cells at 10 uM incubated for 48 hrs by sulforhodamine B assay relative to control; assay type: functional; settings: read-out: GI
SK-MEL-5 = assay: Growth inhibition of human SK-MEL-5 cells at 10 uM incubated for 48 hrs by sulforhodamine B assay relative to control; assay type: functional; settings: SK-MEL-5, 48 h, read-out: GI
UACC-62 = assay: Growth inhibition of human UACC62 cells at 10 uM incubated for 48 hrs by sulforhodamine B assay relative to control; assay type: functional; settings: UACC-62, 48 h, read-out: GI
IGROV-1 = assay: Growth inhibition of human IGROV1 cells at 10 uM incubated for 48 hrs by sulforhodamine B assay relative to control; assay type: functional; settings: IGROV-1, 48 h, read-out: GI
OVCAR-4 = assay: Growth inhibition of human OVCAR4 cells at 10 uM incubated for 48 hrs by sulforhodamine B assay relative to control; assay type: functional; settings: OVCAR-4, 48 h, read-out: GI
OVCAR-8 = assay: Growth inhibition of human OVCAR8 cells at 10 uM incubated for 48 hrs by sulforhodamine B assay relative to control; assay type: functional; settings: OVCAR-8, 48 h, read-out: GI
NCI/ADR-RES = assay: Growth inhibition of human NCI/ADR-RES cells at 10 uM incubated for 48 hrs by sulforhodamine B assay relative to control; assay type: functional; settings: read-out: GI
ACHN = assay: Growth inhibition of human ACHN cells at 10 uM incubated for 48 hrs by sulforhodamine B assay relative to control; assay type: functional; settings: read-out: GI
CAKI-1 = assay: Growth inhibition of human Caki1 cells at 10 uM incubated for 48 hrs by sulforhodamine B assay relative to control; assay type: functional; settings: CAKI-1, 48 h, read-out: GI
RXF 393 = assay: Growth inhibition of human RXF393 cells at 10 uM incubated for 48 hrs by sulforhodamine B assay relative to control; assay type: functional; settings: RXF 393, 48 h, read-out: GI
UO-31 = assay: Growth inhibition of human UO31 cells at 10 uM incubated for 48 hrs by sulforhodamine B assay relative to control; assay type: functional; settings: UO-31, 48 h, read-out: GI
PC-3 = assay: Growth inhibition of human PC3 cells at 10 uM incubated for 48 hrs by sulforhodamine B assay relative to control; assay type: functional; settings: PC-3, 48 h, read-out: GI
MCF7 [3] = assay: Growth inhibition of human MCF7 cells at 10 uM incubated for 48 hrs by sulforhodamine B assay relative to control; assay type: functional; settings: MCF7, 48 h, read-out: GI
MDA-MB-231 = assay: Growth inhibition of human MDA-MB-231 cells at 10 uM incubated for 48 hrs by sulforhodamine B assay relative to control; assay type: functional; settings: MDA-MB-231, 48 h, read-out: GI
T47D [4] = assay: Growth inhibition of human T47D cells at 10 uM incubated for 48 hrs by sulforhodamine B assay relative to control; assay type: functional; settings: read-out: GI
MDA-MB-468 = assay: Growth inhibition of human MDA-MB-468 cells at 10 uM incubated for 48 hrs by sulforhodamine B assay relative to control; assay type: functional; settings: MDA-MB-468, 48 h, read-out: GI
MCF7 [5] = assay: Cytotoxicity against human MCF7 cells expressing VEGFR2 and wild type BRAF measured after 48 hrs by sulforhodamine B assay; assay type: functional, cell-based; settings: MCF7, 48 h
T47D [6] = assay: Cytotoxicity against human T47D cells expressing wild type BRAF measured after 48 hrs by sulforhodamine B assay; assay type: functional, cell-based
MCF7 [7] = assay: Inhibition of VEGFR2 level in human MCF7 cells at 10 uM measured after 48 hrs by ELISA relative to control; assay type: functional; settings: MCF7, 48 h
HL-60(TB) = assay: Growth inhibition of human HL-60(TB) cells at 10 uM incubated for 48 hrs by sulforhodamine B assay relative to control; assay type: functional; settings: HL-60, 48 h, read-out: GI
A549 = assay: Growth inhibition of human A549/ATCC cells at 10 uM incubated for 48 hrs by sulforhodamine B assay relative to control; assay type: functional; settings: A549, 48 h, read-out: GI
EKVX = assay: Growth inhibition of human EKVX cells at 10 uM incubated for 48 hrs by sulforhodamine B assay relative to control; assay type: functional; settings: read-out: GI
HOP-62 = assay: Growth inhibition of human HOP62 cells at 10 uM incubated for 48 hrs by sulforhodamine B assay relative to control; assay type: functional; settings: HOP-62, 48 h, read-out: GI
SF-295 = assay: Growth inhibition of human SF295 cells at 10 uM incubated for 48 hrs by sulforhodamine B assay relative to control; assay type: functional; settings: SF-295, 48 h, read-out: GI
SNB-19 = assay: Growth inhibition of human SNB19 cells at 10 uM incubated for 48 hrs by sulforhodamine B assay relative to control; assay type: functional; settings: SNB-19, 48 h, read-out: GI
SNB-75 = assay: Growth inhibition of human SNB75 cells at 10 uM incubated for 48 hrs by sulforhodamine B assay relative to control; assay type: functional; settings: SNB-75, 48 h, read-out: GI
U-251 = assay: Growth inhibition of human U251 cells at 10 uM incubated for 48 hrs by sulforhodamine B assay relative to control; assay type: functional; settings: U-251, 48 h, read-out: GI
SK-OV-3 = assay: Growth inhibition of human SKOV3 cells at 10 uM incubated for 48 hrs by sulforhodamine B assay relative to control; assay type: functional; settings: SK-OV-3, 48 h, read-out: GI
SN12C = assay: Growth inhibition of human SN12C cells at 10 uM incubated for 48 hrs by sulforhodamine B assay relative to control; assay type: functional; settings: read-out: GI
Hs-578T = assay: Growth inhibition of human Hs578T cells at 10 uM incubated for 48 hrs by sulforhodamine B assay relative to control; assay type: functional; settings: read-out: GI
SF-268 = assay: Growth inhibition of human SF268 cells at 10 uM incubated for 48 hrs by sulforhodamine B assay relative to control; assay type: functional; settings: SF-268, 48 h, read-out: GI
SF-539 = assay: Growth inhibition of human SF539 cells at 10 uM incubated for 48 hrs by sulforhodamine B assay relative to control; assay type: functional; settings: SF-539, 48 h, read-out: GI
A498 = assay: Growth inhibition of human A498 cells at 10 uM incubated for 48 hrs by sulforhodamine B assay relative to control; assay type: functional; settings: A498, 48 h, read-out: GI

Vascular endothelial growth factor receptor 2, sequence (P35968 whole entry): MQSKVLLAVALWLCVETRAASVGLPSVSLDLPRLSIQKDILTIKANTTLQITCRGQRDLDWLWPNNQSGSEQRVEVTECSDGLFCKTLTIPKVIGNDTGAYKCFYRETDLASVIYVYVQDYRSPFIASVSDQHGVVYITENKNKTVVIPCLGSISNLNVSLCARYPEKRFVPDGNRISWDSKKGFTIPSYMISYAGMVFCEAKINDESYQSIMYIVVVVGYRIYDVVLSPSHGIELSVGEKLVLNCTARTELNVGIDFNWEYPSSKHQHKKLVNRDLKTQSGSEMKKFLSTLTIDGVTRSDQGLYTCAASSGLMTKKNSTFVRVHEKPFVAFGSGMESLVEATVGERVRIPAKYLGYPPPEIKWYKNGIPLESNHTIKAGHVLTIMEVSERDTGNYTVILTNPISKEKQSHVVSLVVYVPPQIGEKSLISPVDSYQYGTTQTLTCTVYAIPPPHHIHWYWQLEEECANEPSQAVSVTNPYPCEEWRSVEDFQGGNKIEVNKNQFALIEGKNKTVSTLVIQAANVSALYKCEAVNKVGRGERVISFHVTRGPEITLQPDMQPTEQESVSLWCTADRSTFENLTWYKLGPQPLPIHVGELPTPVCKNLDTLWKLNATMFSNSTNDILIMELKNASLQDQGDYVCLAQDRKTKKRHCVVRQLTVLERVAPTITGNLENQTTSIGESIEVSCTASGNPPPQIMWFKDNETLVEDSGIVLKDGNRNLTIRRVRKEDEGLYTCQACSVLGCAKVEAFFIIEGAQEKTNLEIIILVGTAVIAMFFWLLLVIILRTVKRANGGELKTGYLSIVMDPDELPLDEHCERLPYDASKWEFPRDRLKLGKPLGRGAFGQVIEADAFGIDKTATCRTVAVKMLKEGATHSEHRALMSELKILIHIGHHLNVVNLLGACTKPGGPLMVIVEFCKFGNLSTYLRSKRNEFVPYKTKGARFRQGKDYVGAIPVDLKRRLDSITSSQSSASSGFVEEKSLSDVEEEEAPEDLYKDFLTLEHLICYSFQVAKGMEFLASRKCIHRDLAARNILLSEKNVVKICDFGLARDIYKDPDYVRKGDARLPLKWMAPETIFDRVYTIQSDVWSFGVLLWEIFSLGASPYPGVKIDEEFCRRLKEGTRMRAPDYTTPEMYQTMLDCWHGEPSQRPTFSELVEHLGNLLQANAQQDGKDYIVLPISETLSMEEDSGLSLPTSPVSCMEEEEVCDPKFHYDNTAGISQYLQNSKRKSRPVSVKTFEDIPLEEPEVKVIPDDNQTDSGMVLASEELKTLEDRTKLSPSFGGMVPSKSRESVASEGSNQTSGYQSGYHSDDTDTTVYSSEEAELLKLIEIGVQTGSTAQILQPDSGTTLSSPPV
Serine/threonine-protein kinase B-raf, sequence (P15056 whole entry): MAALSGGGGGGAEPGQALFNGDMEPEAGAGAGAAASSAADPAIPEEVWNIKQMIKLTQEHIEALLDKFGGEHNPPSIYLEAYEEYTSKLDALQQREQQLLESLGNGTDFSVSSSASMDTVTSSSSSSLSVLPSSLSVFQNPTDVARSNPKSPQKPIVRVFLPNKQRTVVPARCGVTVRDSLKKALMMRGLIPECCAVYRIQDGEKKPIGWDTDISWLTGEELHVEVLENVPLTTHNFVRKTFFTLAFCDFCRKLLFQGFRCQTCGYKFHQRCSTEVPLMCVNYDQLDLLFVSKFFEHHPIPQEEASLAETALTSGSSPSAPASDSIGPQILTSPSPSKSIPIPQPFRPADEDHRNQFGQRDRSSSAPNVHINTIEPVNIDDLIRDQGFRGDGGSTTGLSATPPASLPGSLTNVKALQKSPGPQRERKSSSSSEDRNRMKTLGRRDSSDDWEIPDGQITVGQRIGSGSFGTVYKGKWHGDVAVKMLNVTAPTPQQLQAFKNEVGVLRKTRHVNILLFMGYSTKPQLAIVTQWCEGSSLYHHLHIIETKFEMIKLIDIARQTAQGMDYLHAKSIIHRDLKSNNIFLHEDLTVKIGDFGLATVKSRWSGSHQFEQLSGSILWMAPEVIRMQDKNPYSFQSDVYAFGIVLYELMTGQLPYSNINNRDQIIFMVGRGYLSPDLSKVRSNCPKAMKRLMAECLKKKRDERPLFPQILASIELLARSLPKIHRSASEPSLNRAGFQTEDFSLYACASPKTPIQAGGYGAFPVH

| SMILES | pIC50 [1] | inhibition of growth at 10 µM (CCRF-CEM) [%] | inhibition of growth at 10 µM (K562) [%] | inhibition of growth at 10 µM (MOLT-4) [%] | inhibition of growth at 10 µM (RPMI-8226) [%] | inhibition of growth at 10 µM (NCI-H226) [%] | inhibition of growth at 10 µM (NCI-H23) [%] | inhibition of growth at 10 µM (NCI-H522) [%] | inhibition of growth at 10 µM (HCT-116) [%] | inhibition of growth at 10 µM (LOX IMVI) [%] | inhibition of growth at 10 µM (SK-MEL-5) [%] | inhibition of growth at 10 µM (UACC-62) [%] | inhibition of growth at 10 µM (IGROV-1) [%] | inhibition of growth at 10 µM (ACHN) [%] | inhibition of growth at 10 µM (CAKI-1) [%] | inhibition of growth at 10 µM (UO-31) [%] | inhibition of growth at 10 µM (PC-3) [%] | inhibition of growth at 10 µM (MDA-MB-231) [%] | inhibition of growth at 10 µM (MDA-MB-468) [%] | pIC50 (MCF7 [5]) | further results |
| --- | --- | --- | --- | --- | --- | --- | --- | --- | --- | --- | --- | --- | --- | --- | --- | --- | --- | --- | --- | --- | --- |
| COc1ccc(C(=O)CSc2nccc(Nc3ccc(N4CCOCC4)cc3)n2)cc1 | 6.54 | 21 | 21 | 34 | 45 | 13 | 15 | 34 | 18 | 11 | 53 | 30 | 12 | 11 | 16 | 35 | 16 | 11 | 13 | 4.64 | pIC50 [2]: 6.36; inhibition of growth at 10 µM (OVCAR-4): 15%; inhibition of growth at 10 µM (OVCAR-8): 24%; inhibition of growth at 10 µM (NCI/ADR-RES): 24%; inhibition of growth at 10 µM (RXF 393): 10%; inhibition of growth at 10 µM (MCF7 [3]): 17%; inhibition of growth at 10 µM (T47D [4]): 67%; pIC50 (T47D [6]): 5.36; inhibition at 10 µM (MCF7 [7]): 52% |
| CC(=O)c1cccc(Nc2ccnc(SCC(=O)c3ccc(C(F)(F)F)cc3)n2)c1 | < 5.00 | 10 | 29 | 24 | 31 | 24 | 21 | 27 | 28 | 13 | 14 | 29 | 44 | 19 | 42 | 57 | 30 | 22 | 16 | 4.55 | inhibition of growth at 10 µM (HL-60(TB)): < 10%; inhibition of growth at 10 µM (A549): 12%; inhibition of growth at 10 µM (EKVX): 28%; inhibition of growth at 10 µM (HOP-62): 17%; inhibition of growth at 10 µM (SF-295): 15%; inhibition of growth at 10 µM (SNB-19): 10%; inhibition of growth at 10 µM (SNB-75): 32%; inhibition of growth at 10 µM (U-251): 12%; inhibition of growth at 10 µM (NCI/ADR-RES): 11%; inhibition of growth at 10 µM (SK-OV-3): 21%; inhibition of growth at 10 µM (RXF 393): 11%; inhibition of growth at 10 µM (SN12C): 17%; inhibition of growth at 10 µM (MCF7 [3]): 26%; inhibition of growth at 10 µM (Hs-578T): 11%; inhibition of growth at 10 µM (T47D [4]): 37%; pIC50 (T47D [6]): 4.77 |
| O=C(CSc1nccc(Nc2ccc(N3CCOCC3)cc2)n1)c1ccc(Cl)cc1 | 5.72 | 13 | 10 | – | 10 | 13 | 19 | 22 | – | – | – | 10 | 17 | 10 | 23 | 26 | 12 | 10 | 19 | 4.14 | inhibition of growth at 10 µM (EKVX): 10%; inhibition of growth at 10 µM (HOP-62): 37%; inhibition of growth at 10 µM (SF-268): 15%; inhibition of growth at 10 µM (SF-539): 15%; inhibition of growth at 10 µM (SNB-19): 19%; inhibition of growth at 10 µM (SNB-75): 36%; inhibition of growth at 10 µM (OVCAR-8): 17%; inhibition of growth at 10 µM (A498): 13% |

Reference: ChEMBL document CHEMBL4396916, “Novel potent substituted 4-amino-2-thiopyrimidines as dual VEGFR-2 and BRAF kinase inhibitors” (Eur J Med Chem, 2019)
